Source: BigSolDB 2.1

O=C1OC(=O)c2ccc(Br)c3cccc1c23
solubility (mole fraction)
Conditions | 278.15 K | 283.15 K | 288.15 K | 293.15 K | 298.15 K | 303.15 K
in acetic acid | 0.000263 | 0.000316 | 0.000382 | 0.00046 | 0.000565 | 0.000666
in acetone | 0.001 | 0.00119 | 0.00138 | 0.00161 | 0.00192 | 0.00224
in ethanol | 2.66e-05 | 3.65e-05 | 5.08e-05 | 6.99e-05 | 9.53e-05 | 0.000131
in methanol | 4.62e-05 | 6.41e-05 | 8.62e-05 | 0.000118 | 0.00016 | 0.000212
